Among the data in patent US4690919A, “Benzoxazinorifamycin derivative, process for preparing the same and antibacterial agent containing the same” (Kanegafuchi Kagaku Kogyo Kabushiki Kaisha, priority 1985, dated 1987) are concentration and MIC values, retold here.

Values after ≈ are worked out from the molar mass of the structure shown.

Series [1] in a line: Concentration in serum after oral administration to rats. To be noted: rat, 20 mg/kg.
In series [2] the test system is Micrococcus luteus IFO 12708. As to the kind of experiment: Antibacterial activity (MIC), standard method of Japan Society of Chemotherapy. It is filed as cell-based. To be noted: IFO12708; Micrococcus luteus IFO 12708; read-out: minimum inhibitory concentration (MIC). The source says: (§1) The results obtained from the typical compounds are shown in Table 2 as the minimum inhibitory concentration (MIC, μg/ml). […] In Table 2, Test compound No. corresponds to derivative No. in Table 1.

Series [3] concerns Klebsiella pneumoniae IFO 3512. Described as above. It is filed as cell-based. The conditions noted are these: IFO3512; Klebsiella pneumoniae IFO 3512; read-out: minimum inhibitory concentration (MIC).
Excerpt: as §1

Series [4] relates to Mycobacterium smegmatis ATCC 607. Described as above. The class given is cell-based. To be noted: Mycolicibacterium smegmatis, ATCC607; Mycobacterium smegmatis ATCC 607; read-out: minimum inhibitory concentration (MIC).
Excerpt: as §1

Series [5] relates to Bacillus subtilis IFO 3134. Described as above. The class given is cell-based. The conditions noted are these: IFO3134; Bacillus subtilis IFO 3134; read-out: minimum inhibitory concentration (MIC).
Excerpt: as §1

The subject of series [6] is Staphylococcus aureus IFO 12732. The series is described as above. It is filed as cell-based. The conditions noted are these: IFO12732; Staphylococcus aureus IFO 12732; read-out: minimum inhibitory concentration (MIC).
Excerpt: as §1

The subject of series [7] is Escherichia coli IFO 12734. Described as above. It is filed as cell-based. To be noted: IFO12734, read-out: minimum inhibitory concentration (MIC).
Excerpt: as §1

Compound `COC1C=COC2(C)Oc3c(C)c(O)c4c(=O)c(c5oc6cc(N7CCCC7)ccc6nc-5c4c3C2=O)NC(=O)C(C)=CC=CC(C)C(O)C(C)C(O)C(C)C(OC(C)=O)C1C` (stereo not drawn) [compound 18] displayed a concentration at 1 h in series [1] of 2300 ng/mL. In series [1], this compound displayed a concentration at 3 h of 4900 ng/mL. Further, the concentration at 5 h in series [1] worked out at 3400 ng/mL. The MIC in series [2] was at most 0.02 µg/mL; in series [3], 5 µg/mL (≈ 5.86 µM); in series [4], 1.25 µg/mL (≈ 1.46 µM); in series [5] it was at most 0.02 µg/mL; in series [6], at most 0.02 µg/mL; in series [7], 2.5 µg/mL (≈ 2.93 µM).
Take `CCCN(CCC)c1ccc2nc3c4c5c6c(C)c(O)c4c(=O)c(c-3oc2c1)NC(=O)C(C)=CC=CC(C)C(O)C(C)C(O)C(C)C(OC(C)=O)C(C)C(OC)C=COC(C)(O6)C5=O` (stereo not drawn) [compound 4]: the concentration at 1 h in series [1] worked out at 2000 ng/mL. In addition, in series [1], the concentration at 3 h is 8500 ng/mL. Moreover, the concentration at 5 h in series [1] came to 2100 ng/mL. Further, the MIC is at most 0.02 µg/mL in series [2]; above 10 µg/mL in series [3]; 1.25 µg/mL (≈ 1.41 µM) in series [4]; 0.08 µg/mL (≈ 0.0905 µM) in series [5]; at most 0.02 µg/mL in series [6]; above 10 µg/mL in series [7].
In series [1], `COC1C=COC2(C)Oc3c(C)c(O)c4c(=O)c(c5oc6cc(N7CCCC7)ccc6nc-5c4c3C2=O)NC(=O)C(C)=CC=CC(C)C(O)C(C)C(O)C(C)C(O)C1C` (stereo not drawn) [compound 49] had a concentration at 1 h of 2700 ng/mL. For the same compound, in series [1], the concentration at 3 h was determined as 3500 ng/mL. The concentration at 5 h in series [1] worked out at 2800 ng/mL. The MIC was at most 0.02 µg/mL in series [2]; 5 µg/mL (≈ 6.16 µM) in series [3]; 1.25 µg/mL (≈ 1.54 µM) in series [4]; at most 0.02 µg/mL in series [5]; at most 0.02 µg/mL in series [6]; 1.25 µg/mL (≈ 1.54 µM) in series [7].
Regarding `COC1C=COC2(C)Oc3c(C)c(O)c4c(=O)c(c5oc6cc(N7CCCCC7)ccc6nc-5c4c3C2=O)NC(=O)C(C)=CC=CC(C)C(O)C(C)C(O)C(C)C(OC(C)=O)C1C` (stereo not drawn) [compound 19], the concentration at 1 h in series [1] came out at 4900 ng/mL. The same compound displayed a concentration at 3 h in series [1] of 12400 ng/mL. This compound also came in with a concentration at 5 h in series [1] of 16600 ng/mL. Further, the MIC was at most 0.02 µg/mL in series [2]; 10 µg/mL (≈ 11.5 µM) in series [3]; 1.25 µg/mL (≈ 1.44 µM) in series [4]; at most 0.02 µg/mL in series [5]; at most 0.02 µg/mL in series [6]; 2.5 µg/mL (≈ 2.88 µM) in series [7].
For `CCOCCN(CCOCC)c1ccc2nc3c4c5c6c(C)c(O)c4c(=O)c(c-3oc2c1)NC(=O)C(C)=CC=CC(C)C(O)C(C)C(O)C(C)C(OC(C)=O)C(C)C(OC)C=COC(C)(O6)C5=O` (stereo not drawn) [compound 9], the concentration at 1 h in series [1] is 2100 ng/mL. Moreover, the concentration at 3 h in series [1] stood at 5400 ng/mL. In series [1], the concentration at 5 h came out at 1800 ng/mL. In addition, the MIC is at most 0.02 µg/mL in series [2]; 10 µg/mL (≈ 10.6 µM) in series [3]; 1.25 µg/mL (≈ 1.32 µM) in series [4]; at most 0.02 µg/mL in series [5]; at most 0.02 µg/mL in series [6]; 5 µg/mL (≈ 5.3 µM) in series [7].
On to `COC1C=COC2(C)Oc3c(C)c(O)c4c(=O)c(c5oc6cc(N7CCCC(C)C7)ccc6nc-5c4c3C2=O)NC(=O)C(C)=CC=CC(C)C(O)C(C)C(O)C(C)C(OC(C)=O)C1C` (stereo not drawn) [compound 23], for which the concentration at 1 h in series [1] turned out to be 2100 ng/mL. For the same compound, the concentration at 3 h in series [1] was 6100 ng/mL. The compound further had a concentration at 5 h in series [1] of 5200 ng/mL. The MIC in series [2] was at most 0.02 µg/mL; in series [3], above 10 µg/mL; in series [4], 1.25 µg/mL (≈ 1.42 µM); in series [5] it was at most 0.02 µg/mL; in series [6], at most 0.02 µg/mL; in series [7], above 10 µg/mL.
Consider `COC1C=COC2(C)Oc3c(C)c(O)c4c(=O)c(c5oc6cc(N7CCCCCC7)ccc6nc-5c4c3C2=O)NC(=O)C(C)=CC=CC(C)C(O)C(C)C(O)C(C)C(OC(C)=O)C1C` (stereo not drawn) [compound 20], for which the concentration at 1 h in series [1] was determined as 3200 ng/mL. In addition, in series [1], the concentration at 3 h was 5700 ng/mL. Further, in series [1], the concentration at 5 h worked out at 4900 ng/mL. In addition, the MIC is at most 0.02 µg/mL in series [2]; above 10 µg/mL in series [3]; 1.25 µg/mL (≈ 1.42 µM) in series [4]; 0.04 µg/mL (≈ 0.0454 µM) in series [5]; 0.08 µg/mL (≈ 0.0907 µM) in series [6]; 1.25 µg/mL (≈ 1.42 µM) in series [7].
